Read-outs that look alike come from different tables or passages of the source.

These results are taken from US9126941B2, “Treatment of hyperproliferative disorders with diarylhydantoin compounds” (The Regents of the University of California, priority 2005, dated 2015).

Common to all, as to test: cell-based
Experiment [1] has as its target T1, AR (Homo sapiens, UniProt P10275). As to conditions: for Agonistic activity on AR, reporter: LN-AR, absence of R1881; for fold induction at 0.1 µM: read-out: Fold induction of AR response reporter, 0.1 μM; for fold induction at 1 µM: read-out: Fold induction of AR response reporter, 1 μM; for fold induction at 10 µM: read-out: Fold induction of AR response reporter, 10 μM. From the text: Table 2 lists the agonistic activities of different compounds.

Experiment [2] addresses T1, AR. Type of experiment: cell-based. Here is the method:
It is well established that PSA levels are indicators of AR activities in prostate cancer. […] The LNCaP-AR cells are a line of lymph node carcinoma of prostate cells transduced with a plasmid that makes express androgen receptors. […] After four days incubation, secreted PSA levels were assayed using PSA ELISA kits (American Qualex, San Clemente, Calif.)

For experiment [3], the target named is T1, AR. It counts as cell-based. The following applies: LNCaP-AR; for IC50 (nM) Reporter: 100 pM R1881, two days, No = did not inhibit AR response reporter; for Inhibitory activity on AR in reporter system: hormone refractory. The procedure:
The compounds were subjected to tests using an artificial AR response reporter system in a hormone refractory prostate cancer cell line. […] After two days of incubation, reporter activities were assayed.

Experiment [4] concerns the target T1, AR. It counts as cell-based. The following applies: for Agonistic activity, secreted PSA: AR over expressed LNCaP, absence of R1881; for fold induction at 0.1 µM / fold induction at 1 µM / fold induction at 10 µM: LNCaP; for fold induction at 0.1 µM: read-out: Fold induction of endogenous PSA, 0.1 μM; for fold induction at 1 µM: read-out: Fold induction of endogenous PSA, 1 μM; for fold induction at 10 µM: read-out: Fold induction of endogenous PSA, 10 μM.

T1 sequence (P10275 whole entry, looked up): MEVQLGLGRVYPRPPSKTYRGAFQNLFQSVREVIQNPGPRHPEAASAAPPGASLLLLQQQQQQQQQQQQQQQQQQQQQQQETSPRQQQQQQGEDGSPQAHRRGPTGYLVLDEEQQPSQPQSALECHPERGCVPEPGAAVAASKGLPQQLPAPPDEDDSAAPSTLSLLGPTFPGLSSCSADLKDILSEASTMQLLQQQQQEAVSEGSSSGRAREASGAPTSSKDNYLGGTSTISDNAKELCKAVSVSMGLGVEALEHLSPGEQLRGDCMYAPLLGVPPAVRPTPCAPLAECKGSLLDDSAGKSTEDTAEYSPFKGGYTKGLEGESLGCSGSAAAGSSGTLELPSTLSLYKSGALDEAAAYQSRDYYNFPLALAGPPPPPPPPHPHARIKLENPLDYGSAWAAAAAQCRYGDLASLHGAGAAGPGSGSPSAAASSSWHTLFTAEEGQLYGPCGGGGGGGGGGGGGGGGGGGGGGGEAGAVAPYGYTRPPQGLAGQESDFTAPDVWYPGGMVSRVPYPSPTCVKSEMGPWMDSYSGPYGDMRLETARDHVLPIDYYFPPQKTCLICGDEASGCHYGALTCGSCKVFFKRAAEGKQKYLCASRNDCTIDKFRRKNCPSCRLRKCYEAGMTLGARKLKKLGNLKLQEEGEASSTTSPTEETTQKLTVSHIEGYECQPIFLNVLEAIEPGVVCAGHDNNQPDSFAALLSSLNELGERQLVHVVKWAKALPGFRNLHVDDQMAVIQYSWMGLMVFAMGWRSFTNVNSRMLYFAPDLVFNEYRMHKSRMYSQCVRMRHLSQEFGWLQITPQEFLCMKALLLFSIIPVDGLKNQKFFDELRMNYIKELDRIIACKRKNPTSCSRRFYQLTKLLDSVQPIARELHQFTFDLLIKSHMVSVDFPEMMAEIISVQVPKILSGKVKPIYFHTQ

`CN1C(=S)N(c2ccc(C#N)c(C(F)(F)F)c2)C(=O)C12CCC2` [RD73, 4-(5-methyl-8-oxo-6-thioxo-5,7-diazaspiro[3.4]oct-7-yl)-2-trifluoromethylbenzonitrile, reference compound]: on AR [1], the “Agonistic activity on AR, reporter” value was “strongly activated AR”; the fold induction at 0.1 µM was 14.9; the fold induction at 1 µM turned out to be 19.4; the fold induction at 10 µM is 35.2. For the same compound, on AR [2], the “IC50 (nM) PSA” value was “No”. Further, on AR [3], the “IC50 (nM) Reporter” value is given as “No” and the “Inhibitory activity on AR in reporter system” value (“Inhibitory activity on AR” below) is “no inhibitory activities”. Moreover, on AR [4], the “Agonistic activity, secreted PSA” value is reported as “stimulated PSA expression”; the fold induction at 0.1 µM turned out to be 6.25; the fold induction at 1 µM came out at 17.9; the fold induction at 10 µM worked out at 25.6.
With `CN1C(=O)N(c2ccc(C#N)c(C(F)(F)F)c2)C(=O)C12CCC2` [RD74, 4-(5-methyl-6,8-dioxo-5,7-diazaspiro[3.4]oct-7-yl)-2-trifluoromethylbenzonitrile, reference compound], at AR [1], the “Agonistic activity on AR, reporter” value is listed as “strongly activated AR”; the fold induction at 0.1 µM turned out to be 11.4; the fold induction at 1 µM is 14.3; the fold induction at 10 µM turned out to be 30.6. Moreover, the “IC50 (nM) PSA” value at AR [2] is given as “No”. Further, on AR [3], the “IC50 (nM) Reporter” value is recorded as “No” and the “Inhibitory activity on AR” value is on record as “no inhibitory activities”. On AR [4], the “Agonistic activity, secreted PSA” value was “stimulated PSA expression”; the fold induction at 0.1 µM is 7.5; the fold induction at 1 µM amounted to 15.2; the fold induction at 10 µM is 23.8.
`CN1C(=S)N(c2ccc(C#N)c(C(F)(F)F)c2)C(=O)C12CCCC2` [RD75, 4-(1-methyl-4-oxo-2-thioxo-1,3-diazaspiro[4.4]non-3-yl)-2-trifluoromethylbenzonitrile, reference compound]: at AR [1], the “Agonistic activity on AR, reporter” value was “strongly activated AR”; the fold induction at 0.1 µM amounted to 17; the fold induction at 1 µM turned out to be 16.6; the fold induction at 10 µM was determined as 33.8. Also, the “IC50 (nM) PSA” value against AR [2] is “No”. On AR [3], the “IC50 (nM) Reporter” value is “No” and the “Inhibitory activity on AR” value is reported as “no inhibitory activities”. On AR [4], the “Agonistic activity, secreted PSA” value was “stimulated PSA expression”; the fold induction at 0.1 µM was determined as 8.13; the fold induction at 1 µM came out at 18.2; the fold induction at 10 µM came to 17.5.
As to `Cc1ccc(N2C(=S)N(c3ccc(C#N)c(C(F)(F)F)c3)C(=NC(=S)Nc3ccc(C#N)c(C(F)(F)F)c3)C23CCC3)cc1` [RD93, 1-(4-Cyano-3-trifluoromethyl-phenyl)-3-[7-(4-cyano-3-trifluoromethyl-phenyl)-6-thioxo-5-p-tolyl-5,7-diaza-spiro[3.4]oct-8-ylidene]-thiourea], on AR [1], the “Agonistic activity on AR, reporter” value is “no agonistic activity”; the fold induction at 0.1 µM worked out at 1.26; the fold induction at 1 µM is 1.1; the fold induction at 10 µM stood at 1.3. In addition, on AR [4], the “Agonistic activity, secreted PSA” value is given as “no agonistic activities”; the fold induction at 0.1 µM was 1.44; the fold induction at 1 µM amounted to 1.3; the fold induction at 10 µM was 1.05.
As for `CC1(C)C(=O)N(c2ccc(C#N)c(C(F)(F)F)c2)C(=S)N1CCCCO` [RU 59063, 4-[3-(4-hydroxybutyl)-4,4-dimethyl-5-oxo-2-thioxoimidazolidin-1-yl]-2-trifluoromethylbenzonitrile, reference compound], at AR [1], the “Agonistic activity on AR, reporter” value is reported as “strongly activated AR”; the fold induction at 0.1 µM stood at 11; the fold induction at 1 µM was found to be 20.8; the fold induction at 10 µM was found to be 34.6. Besides, the “IC50 (nM) PSA” value on AR [2] was “No”. Also, the “IC50 (nM) Reporter” value on AR [3] was “No(*)”. Further, on AR [4], the “Agonistic activity, secreted PSA” value was “stimulated PSA expression”; the fold induction at 0.1 µM came out at 6.88; the fold induction at 1 µM was 11.5; the fold induction at 10 µM stood at 21.5.
